Some test systems named below: A498 renal; EKVX NSCLC; HCT-116 colon; HOP-62 NSCLC; HOP-92 NSCLC; HT29 colon; K-562 leukemia; NCI-H226 lung; OVCAR-5 ovarian; PC-3 prostate; RXF 393 renal; SF-268 CNS; SF-539 CNS; SK-MEL-2 melanoma; SK-MEL-28 melanoma; T-47D breast; UACC-257 melanoma; UACC-62 melanoma; UO-31 renal; LOX IMVI melanoma.
Holding throughout (assay): NCI-60 cell line screen, 48 h

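The compound was tested at five concentrations on cells cultured in 96-well plates, with a 48-hour exposure period. TGI denotes the concentration required for complete inhibition of growth.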

Among the data in PubChem BioAssay (NCI) are TGI values, retold here.

In the case of `O=C1C=CC(=O)c2c(O)c(Br)c(Br)c(O)c21`, the TGI in the assay with A498 renal came to 36.9 µM; in the assay with EKVX NSCLC, 58.7 µM; in the assay on HCT-116 colon, 8.57 µM; with HOP-62 NSCLC, 24.8 µM; with HOP-92 NSCLC it was 4.18 µM; in the assay with HT29 colon, 9.89 µM. The TGI came out at 1.75 µM in the assay on K-562 leukemia; 55.6 µM with NCI-H226 lung; 30.8 µM in the assay on OVCAR-5 ovarian; 29.6 µM in the assay on PC-3 prostate; 6.13 µM in the assay with RXF 393 renal; 38.3 µM in the assay on SF-268 CNS. For the same compound, the TGI came to 30.5 µM with SF-539 CNS; 46.6 µM with SK-MEL-2 melanoma; 4.91 µM in the assay on SK-MEL-28 melanoma; 6.04 µM in the assay with T-47D breast; 8.25 µM in the assay with UACC-257 melanoma; 26.1 µM in the assay on UACC-62 melanoma. Further, the TGI in the assay with UO-31 renal was found to be 6.65 µM.
As to `CCN(CC)c1ccc2nc3ccc(N=Nc4c(O)ccc5ccccc45)cc3[n+](-c3ccccc3)c2c1`, the TGI with EKVX NSCLC, in the assay with HCT-116 colon, with HOP-62 NSCLC, in the assay with HOP-92 NSCLC, with HT29 colon and with K-562 leukemia was greater than 100 µM throughout. Besides, the TGI with NCI-H226 lung, in the assay on OVCAR-5 ovarian, with PC-3 prostate, in the assay on RXF 393 renal, with SF-268 CNS and in the assay with SK-MEL-2 melanoma was greater than 100 µM in each case. The TGI in the assay on SK-MEL-28 melanoma, with T-47D breast, in the assay on UACC-257 melanoma, in the assay on UACC-62 melanoma and with UO-31 renal was greater than 100 µM in each case.
As for `C[N+](C)(C)c1cc2c(nn1)Nc1ccccc1S2`, the TGI in the assay on A498 renal worked out at 87.8 µM; in the assay on EKVX NSCLC, 29.9 µM; with HCT-116 colon it was 66 µM; with HOP-62 NSCLC, 69.8 µM; in the assay on HOP-92 NSCLC, 48.5 µM; in the assay on HT29 colon, 42.5 µM. Moreover, the TGI with K-562 leukemia was 68.9 µM; in the assay with LOX IMVI melanoma, 43.8 µM; with NCI-H226 lung, 35.9 µM; with OVCAR-5 ovarian, 58.2 µM; in the assay with PC-3 prostate it was 47.9 µM; in the assay with RXF 393 renal it was greater than 100 µM. For the same compound, the TGI with SF-268 CNS was greater than 100 µM; in the assay on SK-MEL-2 melanoma, 37.1 µM; with SK-MEL-28 melanoma, 53.1 µM; in the assay with T-47D breast it was 28.2 µM; with UACC-257 melanoma, 62.6 µM; in the assay on UACC-62 melanoma it was 36.9 µM. The compound further showed a TGI in the assay with UO-31 renal of 41.9 µM.
Consider `CCOC(=O)c1c(C)n(C)c2c1cc(O)c1[nH]c3c(c12)CCCC3`, for which the TGI in the assay with EKVX NSCLC was 45.1 µM; in the assay with HCT-116 colon, 50.3 µM; in the assay on HOP-62 NSCLC, greater than 100 µM; in the assay on HOP-92 NSCLC, 16.8 µM; in the assay with HT29 colon, 49.4 µM; with K-562 leukemia, 40.3 µM. The TGI turned out to be 29.7 µM with LOX IMVI melanoma; 65.1 µM in the assay with OVCAR-5 ovarian; 46.6 µM in the assay on PC-3 prostate; 21.8 µM in the assay on SF-268 CNS; 37.9 µM in the assay on SF-539 CNS; 37 µM in the assay on SK-MEL-2 melanoma. In addition, the TGI stood at 32.8 µM in the assay with SK-MEL-28 melanoma; 48.4 µM in the assay on T-47D breast; 31.7 µM in the assay on UACC-257 melanoma; 35.8 µM in the assay with UACC-62 melanoma; 69.9 µM in the assay on UO-31 renal.
Regarding `Cc1nc2[nH]ncn2c(=O)c1CCCl`, the TGI in the assay on A498 renal, in the assay with EKVX NSCLC, with HCT-116 colon, in the assay on HOP-62 NSCLC, in the assay with HT29 colon and with K-562 leukemia was greater than 10 µM in each case. For the same compound, the TGI in the assay on LOX IMVI melanoma, in the assay with NCI-H226 lung, with OVCAR-5 ovarian, in the assay on PC-3 prostate, with RXF 393 renal and in the assay with SF-268 CNS was greater than 10 µM each time. The TGI with SF-539 CNS, with SK-MEL-2 melanoma, in the assay with SK-MEL-28 melanoma, in the assay on T-47D breast, with UACC-62 melanoma and in the assay on UO-31 renal was greater than 10 µM throughout.
Consider `O=C(c1ccccc1)C1C(c2ccccc2)N1S(=O)(=O)c1ccccc1` (stereo not given), for which the TGI in the assay on EKVX NSCLC, with HCT-116 colon, in the assay with HOP-62 NSCLC, with HT29 colon, in the assay with K-562 leukemia and with LOX IMVI melanoma was greater than 100 µM throughout. In addition, the TGI in the assay on NCI-H226 lung, in the assay with OVCAR-5 ovarian, in the assay with PC-3 prostate, with RXF 393 renal, with SF-268 CNS and in the assay with SF-539 CNS was greater than 100 µM each time. The TGI in the assay on SK-MEL-2 melanoma, with SK-MEL-28 melanoma, in the assay on T-47D breast, in the assay on UACC-62 melanoma and in the assay on UO-31 renal was greater than 100 µM each time.
Take `COc1cc(C(=O)CC2OC(=O)C(Cl)=C2Cl)ccc1Cl` (stereo not given): the TGI in the assay with A498 renal, in the assay on EKVX NSCLC, in the assay on HCT-116 colon, in the assay with HOP-62 NSCLC, in the assay with HOP-92 NSCLC and with HT29 colon was greater than 100 µM each time. Further, the TGI with K-562 leukemia, with LOX IMVI melanoma, in the assay on NCI-H226 lung, with OVCAR-5 ovarian, with RXF 393 renal and with SF-268 CNS was greater than 100 µM throughout. Moreover, the TGI in the assay on SF-539 CNS, in the assay with SK-MEL-2 melanoma, with SK-MEL-28 melanoma, in the assay with UACC-257 melanoma, with UACC-62 melanoma and in the assay on UO-31 renal was greater than 100 µM throughout.
Turning to `CN=C(N)c1ccc(N=C(N)c2ccc(C(N)=Nc3ccc(C(N)=NC)cc3)cc2)cc1`, the TGI in the assay on HOP-62 NSCLC, with HOP-92 NSCLC, with HT29 colon, in the assay with K-562 leukemia, with LOX IMVI melanoma and in the assay on NCI-H226 lung was greater than 100 µM each time. Further, the TGI in the assay with OVCAR-5 ovarian, with RXF 393 renal, with SF-268 CNS, in the assay with SF-539 CNS, in the assay on SK-MEL-2 melanoma and with SK-MEL-28 melanoma was greater than 100 µM each time. Further, the TGI with UACC-257 melanoma, in the assay with UACC-62 melanoma and in the assay on UO-31 renal was greater than 100 µM throughout.
